Patent US20230287316A1, “INTER-ORGAN PLATFORM WITH TISSUE-SPECIFIC NICHES FOR A MICROPHYSIOLOGICAL SYSTEM ON A CHIP” (THE TRUSTEES OF COLUMBIA UNIVERSITY IN THE CITY OF NEW YORK, priority 2020, published 2023)

What was measured:
[1] = tested on: engineered cardiac tissues; experiment: Linsitinib on engineered cardiac tissues cultured in isolation; format: cell-based, human; conditions: isolated
Experimental: FIGS. 32A-D show aspects of responses of human engineered bone ES tumors and cardiac tissues to linsitinib in isolated platform chambers. […] Luminescence as a function of cancer cell number and viability was measured (mean± s.e.m., n = 6 for day 3, and n = 3 for day 7 and 21).
Specifically, linsitinib was dissolved at a 10 mM concentration in DMSO (Corning) and mixed in with the respective cell medium at a […] concentration unless otherwise noted. Vehicle treatments involved just the addition of DMSO at identical volumes as a control. Tissues were randomly assigned to experimental groups. Medium was changed every day.
(§1) To measure the cardiac contractility online, we took contractility videos of the tissues that were analyzed using the native MATLAB code we previously developed. Tissue contractility was measured by tracking the change in tissue area as a function of time. Acquired video frames were inverted and an automated intensity threshold was used to identify cell location in the video frame. First, a baseline time point in the video corresponding to a relaxed tissue state was selected. Absolute differences in cell area from the baseline frame were then calculated to create a time course of cell area changes over time. The resulting time courses were analyzed using a native MATLAB (MATHWorks) automated peak finding algorithm to determine locations of maximum cell contractions in the time profiles. Beat period lengths were determined from the length of time between the pairs of local maxima, and the beat frequencies were determined by inverting beat periods. The rate of proarrhythmic events was calculated by the ratio of the number of proarrhythmic events over the total number of beats.

[2] = tested on: non-metastatic TE-ES bone tumor; experiment: Linsitinib on non-metastatic TE-ES in 1:1 mixed media; format: cell-based, human; conditions: 12 µM regimen
Experimental: (§2) Cell viability was analyzed using a previously established protocol.^59 Cancer cell viability was measured for GFP-Luciferase labelled cancer cells using ONE-Glo luciferase substrate that was prepared according to manufacturer’s protocol (Promega). Samples were collected following 3, 7, and 21 days cycles of linsitinib treatment. Where noted, longitudinal cell viability was also assessed using luminescence, though at the cost of signal strength. Briefly, in vivo grade VivoGlo™ Luciferin (Promega) was made at a 200x stock concentration (30 mg/ml) in water, added to sample culture media at a 1:200 dilution, and scanned using a spectrophotometer (Biotek). Some of the IC50 values were determined using cell viability data generated using an MTT assay (RealTime-Glo™ MT Cell Viability Assay, Promega) that were analyzed according to manufacturer’s protocol.
(§3) Osteocalcin (OCN), osteopontin (OPN), and lactic acid dehydrogenase (LDH) secreted levels were all measured using a similar approach. Supernatants were isolated from controls and drug treated TE-ES and equal amounts were used in each assay according to the manufacturer’s instructions. For OCN a Human Osteocalcin Quantikine^R ELISA (R&D Systems) was used, while for OPN it was a Human Osteopontin Quantikine^R ELISA (R&D Systems). LDH secretion was determined using a Lactate Dehydrogenase Assay Kit (Colorimetric; Abcam).

[3] = tested on: non-metastatic ES bone tumor tissues; experiment: Linsitinib on non-metastatic ES bone tumor in the integrated platform with microfluidic perfusion; format: cell-based, human; conditions: 12 µM
Experimental: as §2, §3

cardiac tissues = experiment: Linsitinib on cardiac tissue in the integrated platform with microfluidic perfusion; format: cell-based, human
Experimental: The TE-ES and cardiac tissues were then cultured in the integrated platform with perfusion of mixed media. Linsitinib was introduced into the reservoir and delivered to tissues via circulation of perfusate and diffusion into the tissues.
FIGS. 35A-E show aspects of responses of human engineered bone ES tumors and cardiac tissues to linsitinib in the integrated platform with microfluidic perfusion. FIGS. 35A and 35B show the responses when non-metastatic ES bone tumors and cardiac tissues were exposed to linsitinib (12 µM) over a period of 72 hours in either isolated culture or within the perfused integrated platform. Luminescence (FIG. 35A) and LDH secretion (FIG. 35B) as functions of cancer cell number and viability as well as cytotoxicity, respectively, were measured (mean± s.e.m., n = 3).
as §1

phosphorylated IGF-1R = target: T1, phosphorylated IGF-1R (Homo sapiens, UniProt P08069); experiment: Human Phospho-IGF1R ELISA in ES cell monolayers; format: cell-based; conditions: 12 µM for 6 hours, non-metastatic and metastatic ES cell lines
T1 construct: both RD-ES and SK-N-MC monolayers were treated with 12 µM linsitinib for 6 hours, lysed; endogenous in cells; host or cells: RD-ES (ATCC HTB-166) and SK-N-MC (ATCC HTB-10) Ewing sarcoma cell lines

[4] = tested on: tumors engineered from non-metastatic OS cells; experiment: Linsitinib in bioengineered tumors from non-metastatic OS cells; format: cell-based, human; conditions: 12 µM, for 3 weeks
Experimental: We tested the drug Linsitinib—a potent tyrosine kinase inhibitor targeting the IGF-1 receptor (IGF-1R) —in metastatic and non-metastatic OS models (FIG. 17C). The drug was administered (12 µM, for 3 weeks), as per an ongoing Phase II Eurosarc trial in patients with advanced Ewing sarcoma.

T1 sequence (P08069 31-1367): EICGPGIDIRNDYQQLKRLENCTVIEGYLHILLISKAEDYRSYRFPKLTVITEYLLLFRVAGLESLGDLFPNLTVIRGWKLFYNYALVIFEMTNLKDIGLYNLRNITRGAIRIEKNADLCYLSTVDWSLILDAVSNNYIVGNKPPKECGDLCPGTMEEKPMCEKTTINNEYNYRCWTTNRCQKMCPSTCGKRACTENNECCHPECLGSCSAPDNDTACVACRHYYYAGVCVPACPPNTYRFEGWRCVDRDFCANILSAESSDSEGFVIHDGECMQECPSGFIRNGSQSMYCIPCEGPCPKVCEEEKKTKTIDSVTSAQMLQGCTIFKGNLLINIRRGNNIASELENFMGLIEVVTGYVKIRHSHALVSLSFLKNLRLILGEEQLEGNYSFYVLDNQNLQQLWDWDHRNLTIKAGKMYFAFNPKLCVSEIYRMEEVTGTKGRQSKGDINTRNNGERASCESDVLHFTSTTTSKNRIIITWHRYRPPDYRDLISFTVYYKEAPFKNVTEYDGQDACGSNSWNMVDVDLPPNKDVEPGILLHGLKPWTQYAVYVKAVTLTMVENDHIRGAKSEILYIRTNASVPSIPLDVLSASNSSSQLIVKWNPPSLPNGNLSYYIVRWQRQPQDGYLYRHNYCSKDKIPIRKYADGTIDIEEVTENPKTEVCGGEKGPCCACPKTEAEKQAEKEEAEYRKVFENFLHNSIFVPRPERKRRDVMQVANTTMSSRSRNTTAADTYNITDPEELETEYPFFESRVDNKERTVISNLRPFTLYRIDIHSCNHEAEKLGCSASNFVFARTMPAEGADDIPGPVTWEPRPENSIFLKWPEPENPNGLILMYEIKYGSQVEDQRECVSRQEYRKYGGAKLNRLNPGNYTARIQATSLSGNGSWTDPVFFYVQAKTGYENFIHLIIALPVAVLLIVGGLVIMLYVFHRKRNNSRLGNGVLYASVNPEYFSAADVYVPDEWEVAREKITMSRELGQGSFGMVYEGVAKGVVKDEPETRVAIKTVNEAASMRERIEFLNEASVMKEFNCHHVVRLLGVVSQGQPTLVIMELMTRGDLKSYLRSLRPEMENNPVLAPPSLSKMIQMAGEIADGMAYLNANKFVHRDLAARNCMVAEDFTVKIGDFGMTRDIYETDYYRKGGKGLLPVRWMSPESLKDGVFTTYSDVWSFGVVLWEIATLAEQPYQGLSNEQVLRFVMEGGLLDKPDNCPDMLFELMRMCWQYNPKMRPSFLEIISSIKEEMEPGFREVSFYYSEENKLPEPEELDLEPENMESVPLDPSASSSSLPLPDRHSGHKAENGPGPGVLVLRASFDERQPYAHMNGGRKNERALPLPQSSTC

- beating frequency ([1]; 12 µM, after 3 days of exposure): increased beating frequency
- response to subsequent isoproterenol exposure ([1]; after 12 µM linsitinib): the inotropic response was not observed
- response to subsequent isoproterenol exposure (cardiac tissues; after 12 µM linsitinib, integrated platform): expected inotropic response
- levels of phosphorylated IGF-1R (phosphorylated IGF-1R): significant decreases
Structure (SMILES): C[C@]1(O)C[C@@H](c2nc(-c3ccc4ccc(-c5ccccc5)nc4c3)c3c(N)nccn32)C1 [linsitinib]
- rate of proarrhythmic events per beat ([1]; 12 µM): around 36%
- OCN secretion [2]: increased only slightly
- cancer cell population level (luminescence) [2]: ~ 30 % of their starting population
- drug response (luminescence), immediate exposure ([3]; 3 days, directly into the TE-ES tissue chamber): fast response to the drug
- drug response (luminescence), diffused exposure ([3]; 3 days, introduced into the circulation): no response
- drug response (luminescence) ([3]; 3 days, linsitinib into the reservoir): insignificant drug response
- Secretion of LDH, vehicle vs linsitinib treated ([3]; 72 hours): no significant difference
- rate of proarrhythmic events (cardiac tissues; 12 µM, integrated model): approximately 11%
- beat frequency (cardiac tissues; 12 µM, integrated platform): did not observe linsitinib-mediated changes in beat frequency
- overall cardiotoxicity (cardiac tissues; integrated platform): mild cardiotoxicity
- tumor viability [4]: significant viability reduction
